Each structure is given as a SMILES string.

As usually defined, the melting point is the temperature, or range, at which the solid turns liquid.

Turning to `CC(C)(C)c1cc(/C=C/c2nnc(S(C)(=O)=O)s2)cc(C(C)(C)C)c1O`, the melting point is 235 °C. The result for `O=C(OCc1cc(F)nc(F)c1)c1ccccc1` reads 83 to 84 °C; that for `CCCCCCC(=O)Nc1cccc2c1C1(COc3cc4c(cc31)OCCO4)C(=O)N2C` (stereo unspecified), 123 to 124 °C; that for `Cc1ccc(-n2c(-c3ccc(Br)cc3)c(Br)c(Br)c2-c2ccc(Br)cc2)cc1`, 240 to 242 °C.

`O=C1N[C@H]2OC=N[C@@]12c1ccccc1` returned a melting point of 159 to 160 °C. The same measure for `CCOC(=O)CC12C(OS(=O)(=O)C(F)(F)F)=CC(C(C)CCCC(C)C)C1(C)CCC1=C2CCC2CC(OC(=O)c3ccccc3)CCC12C` (stereo unspecified): 132 to 134 °C; for `COc1cc(Oc2cccc(C)c2)nc(C(=O)Nc2ccc(C)cc2)c1`: 110 to 114 °C; for `CCC(O)(c1ccc(OCCCN2CCCCC2)cc1)c1ccccc1OC` (stereo unspecified): 110 to 111 °C. Consider `Cc1cc2c(cc1C(=O)c1ccc(C(O)=NOCc3ccccc3)cc1)C(C)(C)CCC2(C)C`, for which the melting point fell in the range of 169 to 172 °C.

As to `CCCCCCCCCCCCn1nnc(C(C(=O)Nc2c(C(C)C)cccc2C(C)C)(c2ccccc2)c2ccccc2)n1`, the melting point fell in the range of 154 to 156 °C. The result for `CC(C)C(OC(=O)NC1(C(=O)O)CC1)OC(=O)C1CCCCC1` (stereo unspecified) reads 156 to 158 °C; that for `O=C(Nc1ccc(Cl)c(-c2ccnc3c(C(=O)c4cccs4)cnn23)c1)c1ccccc1`, 194 to 195 °C; that for `COCc1nc(C(C)(C)O)c(C(=O)OCOC(=O)C(C)(C)C)n1Cc1ccc(-c2ccccc2-c2nnn[nH]2)cc1`, 71 to 72 °C. The same measure for `CCCCCCCCN(CCCCCCCC)C(=O)c1cc(C(C)(C)C)c(OC(=O)c2cc(C(C)(C)C)c(O)c(C(C)(C)C)c2)c(C(C)(C)C)c1`: 145 to 146 °C; for `NC1([C@@H]2CCN(c3ccc4c(=O)c(C(=O)O)cn([C@@H]5C[C@@H]5F)c4c3)C2)CC1`: 251 to 253 °C. The result for `CCC(C)OC(=O)C(Br)=CC1C(C(=O)OC(C#N)c2cccc(Oc3ccccc3)c2)C1(C)C` (stereo unspecified) reads 76 °C; that for `CCOC(=O)c1ccc(OCc2nc(-c3ccco3)oc2C)c(Cl)c1`, 145 to 146 °C; that for `O=[N+]([O-])c1cc(C(F)(F)F)cc([N+](=O)[O-])c1Nc1c(Cl)cncc1Cl`, 138 to 140 °C. `O=S(=O)(CCCCCOc1ccc(C2=C(c3ccccc3)CCCc3cc(O)ccc32)cc1)CCCC(F)(F)C(F)(F)F` had a melting point of 176 to 178 °C.

As for `CCCn1cnc2c1c(=O)n(CCCCCC(C)=O)c(=O)n2C`, the melting point lay within 69 to 70 °C. The same measure for `COCCOc1ccc(NC=C(C#N)C(=O)Nc2cc(OC)c(Cl)cc2Cl)cc1I`: 209 to 210 °C; for `Cc1ccc2c(c1)CCn1ccnc1C2=C1CCN(CCc2ccc(O)cc2)CC1`: 176 °C. The same measure for `CCOc1c(C=NOC)c(=O)n(C)c(=O)n1C`: 108 to 109 °C; for `O=C(C=Cc1ccc(Cl)cc1Cl)c1ccccc1[N+](=O)[O-]`: 130 to 132 °C.

`COc1ccc(N2CCN(Cc3n[nH]c4ccccc34)CC2)cc1` came in with a melting point of 167 to 168 °C. The result for `CCC(CC)c1nc(CN(C)C(=O)N[C@H](C(=O)N[C@@H](Cc2ccccc2)C[C@H](O)[C@H](Cc2ccccc2)NC(=O)OCc2cncs2)C(C)C)cs1` reads 64 to 66 °C; that for `CN(C)CCCCCCOc1ccc(C(=O)CCc2ccccc2)cc1`, 27 to 28 °C.

`CCOC(=O)CCC1(NC(=O)c2ccc(Cl)c(Cl)c2)C(=O)N(CCCc2ccccc2)c2ccccc21` (stereo unspecified): the melting point fell in the range of 120 to 122 °C.

`CN(Cc1ccco1)C1=N/C(=C\c2c[nH]c3ncc(Cl)cc23)C(=O)N1`: the melting point came out at 315 °C. The same measure for `Cc1cc(-c2ccc(C(F)(F)F)cc2)cc(-c2cccc(-c3cccc(NS(=O)(=O)N4CCOCC4)c3)n2)n1`: 191 °C. The result for `O=C(O)CSc1sccc1Br` reads 64 to 65 °C; that for `Cc1cc2c(cc1NC(=O)c1cccc(I)c1C(=O)NC(C)C)OC(F)(F)C2(O)C(F)(F)F` (stereo unspecified), 144 to 146 °C; that for `COc1cc(OC)c2c(=O)[nH]c(-c3ccc(OCCNC(C)C)c(-c4ccc(S(C)(=O)=O)cc4C(F)(F)F)n3)nc2c1`, 199 to 201 °C. The same measure for `Cn1c(=O)c2c(ncn2CC(O)COC(=O)COc2ccc(Cl)cc2)n(C)c1=O` (stereo unspecified): 81 to 83 °C; for `Oc1ccc(-c2nc(COc3ccc(CCCn4ccnc4)cc3)co2)cc1`: 182 to 183 °C. On to `O=C(NCCc1ccccn1)c1ccc(S(=O)(=O)Nc2cccc3c(Cl)c[nH]c23)cc1`, for which the melting point was 220 to 222 °C. The same measure for `CCc1nn(CO)c(CC)c1Cc1cc(Cl)cc(Cl)c1`: 117 to 118 °C; for `O=c1[nH]c2cc(NO)ccc2c(=O)n1CCCCN1CC=C(c2ccccc2)CC1`: 187 to 189 °C. The same measure for `O=C(O)c1cn(C2CC2)c2c(F)c(N3CCOC(CN4CCCCC4)C3)c(F)cc2c1=O` (stereo unspecified): 160 to 162 °C; for `Cc1cccc2c(Cl)cc(C(F)(F)Cl)nc12`: 46 to 48 °C. The same measure for `CCC(C)(C)NS(=O)(=O)c1ccc(CBr)cc1`: 100 °C; for `Cc1ccc(C(=O)CBr)o1`: 60 to 63 °C; for `CC(C(=O)Cl)c1ccc(C(=O)c2cccs2)cc1` (stereo unspecified): 149 °C. Molecule `COC(=O)CNc1cc2cc(OC)ccc2cc1OCc1ccccc1` displayed a melting point of 129 to 131 °C.

Molecule `O=C(O)c1cccc(CN2CCC(c3cn(CCc4ccccn4)c4ccccc34)CC2)c1` had a melting point of 141 to 142 °C.

As for `Cc1c(C(F)(F)F)n[nH]c1-c1ccc(Cl)cc1`, the melting point amounted to 139 °C. The same measure for `CCCCc1nc(C(=O)C(C)C)c(C#N)n1Cc1ccc(-c2ccccc2-c2nnnn2C(c2ccccc2)(c2ccccc2)c2ccccc2)cc1`: 115 to 116 °C; for `Cc1nc(-c2ccc(=O)[nH]c2C)cs1`: 188 to 190 °C; for `CC(C)C/C=C\CCCCCCCCCC(=O)O`: 12.5 °C. The result for `COc1cc(CC(C#N)=CNc2ccccc2)cc(OC)c1NC=O` reads 186 to 187 °C; that for `Cc1ccccc1Sc1cccc(C=O)c1O`, 42 to 43 °C; that for `CC(C)CCCC(C)C1CC(=O)C2=C3C(F)CC4CC(OC(=O)c5ccccc5)CCC4(C)C3CCC21C` (stereo unspecified), 144 to 145 °C.

Regarding `COC1=Cc2c(c(=O)[nH]c3ccc(OC)cc23)[C@@H](C)C1`, the melting point is 153 to 157 °C. The same measure for `CNCCc1c[nH]c2ccc3c(=O)[nH]ccc3c12`: 160 °C; for `CC(C)Oc1cccc2oc(-c3ccccc3)cc(=O)c12`: 98 to 99 °C. The same measure for `O=C(Nc1nc(-c2ccco2)c(-c2ccncc2)s1)c1ccnc(CN2CCC(O)CC2)c1`: 203 to 208 °C; for `CN1C(=O)NC(=O)C1(C)O` (stereo unspecified): 122 to 123 °C; for `COC(=O)COc1ccc(CC(C)NCC(O)c2ccc(O)c(CO)c2)cc1` (stereo unspecified): 60 to 63 °C. With `CCOC(=O)C(=O)Cc1ccc(C#N)cc1[N+](=O)[O-]`, the melting point is 118 °C. The result for `CN(c1cccc2cc(C3=NCC(C)(CN4CCOCC4)S3)[nH]c12)S(=O)(=O)c1cccs1` (stereo unspecified) reads 146 to 147 °C; that for `O=c1c(O)c(CCCCCO)oc2ccccc12`, 111 to 112 °C; that for `O=C(NCc1cccnc1)c1ccc2n1Cc1ccccc1N(C(=O)c1ccc3c(c1)Cc1ccccc1-3)C2`, 116 to 119 °C.

Regarding `COC(=O)C1=C(C)NC(CO)=C(C(=O)OC)C1c1cccc([N+](=O)[O-])c1` (stereo unspecified), the melting point fell in the range of 145 to 146 °C. For `CCn1c(=O)n(O)c(=O)c2cc(F)c(N3CCCCC3)cc21`, the melting point is 173 to 175 °C. The same measure for `O=C(CN1CCC(NC(=O)c2ccccc2)CC1)c1ccccc1`: 168 °C; for `CSc1cc2cc(C)ccc2cc1C=Cc1cc2ccc(C)cc2cc1SC`: 185 to 186 °C. The result for `CN(C)c1ccc(C(=O)Cc2cccc(Cl)c2)cc1` reads 126 to 128 °C. `CC(=O)Nc1ccc(N2CCNCC2)cc1` registered a melting point of 191 to 193 °C.

The molecule `CC(C)(C)OC(=O)N1C[C@@H]2[C@H](C1)C(F)(F)CCC2(c1ccccc1)c1ccccc1` (racemic) had a melting point of 162 °C. The same measure for `CSc1cc2c([nH]1)CC(C)(C)CC2=O`: 195 to 196 °C; for `COC(=O)c1cn2c(n1)COc1ccc(NC(C)=O)cc1-2`: 216 to 219 °C. Regarding `CC(C)N(C(=S)ON1C(=O)c2ccccc2C1=O)C(C)C`, the melting point was in the range of 73 to 75 °C.

`O=C(O)c1cccc(-c2ccnc3cc(Cc4cccc(C(F)(F)F)c4)nn23)c1` registered a melting point of 111 to 145 °C. The same measure for `CCc1cc(Br)cc2nc(C(=O)OC)c(C(=O)OC)c(O)c12`: 115 to 117 °C; for `CN(C)c1cnc([N+](=O)[O-])cn1`: 221 to 223 °C.

Regarding `COc1ccc(CC(=O)c2ccccc2)cc1`, the melting point fell in the range of 87 to 92 °C. The same measure for `COc1ccc(CC(CC(=O)O)CC(=O)O)cc1`: 109 to 110 °C; for `CCOC(=O)c1cc2ccccc2[nH]c1=O`: 160 to 163 °C. The result for `CCOC(=O)N1CCC2(CC1)N=C(N)c1c(F)ccc(Cl)c1N2` reads 182 to 184 °C; that for `COC(=O)CCSCC(=O)c1ccc2c(c1)CC(=O)N2`, 106 to 108 °C. The same measure for `O=c1ccn(-c2cccc(C(F)(F)F)c2)nc1-c1c[nH]nc1-c1ccccc1`: 206 to 208 °C; for `CC(=O)N1C(=O)OC[C@H]1c1ccccc1`: 94 °C. For the molecule `COc1cccc(CNC(=O)c2nc3scc(COCc4ccc(CO)cc4)c3c(=O)[nH]2)c1`, the melting point lay in the range of 156 to 157 °C. The result for `Cc1cc(N)nc(CCc2nc3cc(-c4ccc(S(=O)(=O)N(C)C)cc4)cnc3[nH]2)c1` reads 157 °C; that for `NCC1Cc2cccc(-c3ccc(F)c(Cl)c3)c2O1` (stereo unspecified), more than 210 °C; that for `O=C(NCC(=O)N1c2ccccc2N(Cc2ccccc2)C(=O)[C@H]2CCC[C@H]21)c1ccc2c(c1)OCO2` (relative stereo), 174 to 176 °C.

The record behind these values is a melting point compilation (Tetko et al.; mined from patent text by program, amines drawn as free bases though some values may be those of a salt).
